Source: BigSolDB 2.1

O=C1C=CC(=O)N1c1ccccc1Br
solubility (mole fraction)
Conditions | 278.15 K | 283.15 K | 288.15 K | 293.15 K | 298.15 K | 303.15 K | 308.15 K | 313.15 K | 318.15 K | 323.15 K
in DMF | 0.141 | 0.163 | 0.189 | 0.219 | 0.253 | 0.284 | 0.318 | 0.363 | 0.411 | 0.473
in DMSO | – | – | – | 0.156 | 0.177 | 0.21 | 0.238 | 0.288 | 0.327 | 0.387
in NMP | 0.117 | 0.131 | 0.154 | 0.179 | 0.212 | 0.245 | 0.284 | 0.324 | 0.372 | 0.424
in acetone | 0.0947 | 0.108 | 0.125 | 0.144 | 0.164 | 0.19 | 0.223 | 0.263 | 0.306 | 0.356
in acetonitrile | 0.0291 | 0.0347 | 0.0422 | 0.0521 | 0.0621 | 0.0723 | 0.0857 | 0.103 | 0.121 | 0.139
in cyclohexane | 0.00188 | 0.00224 | 0.00275 | 0.00344 | 0.00403 | 0.00487 | 0.00597 | 0.00744 | 0.00927 | 0.0117
in ethanol | 0.0113 | 0.0134 | 0.0163 | 0.0204 | 0.0245 | 0.0287 | 0.0341 | 0.0411 | 0.0481 | 0.0556
in ethylene glycol | 0.00377 | 0.00451 | 0.0055 | 0.00661 | 0.00819 | 0.00983 | 0.0115 | 0.0134 | 0.016 | 0.0184
in isobutanol | 0.00649 | 0.00819 | 0.00989 | 0.0117 | 0.0141 | 0.0173 | 0.0204 | 0.0234 | 0.0276 | 0.0328
in isopropanol | 0.00861 | 0.0104 | 0.0126 | 0.0157 | 0.019 | 0.0221 | 0.0261 | 0.0317 | 0.0375 | 0.0429
in methanol | 0.0134 | 0.0162 | 0.0199 | 0.0249 | 0.03 | 0.0356 | 0.0421 | 0.0514 | 0.0604 | 0.0702
in n-butanol | 0.00586 | 0.00717 | 0.00848 | 0.0106 | 0.0127 | 0.0147 | 0.0172 | 0.021 | 0.0247 | 0.0284
in n-propanol | 0.00717 | 0.00866 | 0.0106 | 0.0132 | 0.016 | 0.0187 | 0.0225 | 0.0271 | 0.0323 | 0.0372
in water | 0.000175 | 0.000217 | 0.000277 | 0.000348 | 0.000443 | 0.000543 | 0.000684 | 0.000812 | 0.000979 | 0.00119
